From ChEMBL document CHEMBL1201862, “PubChem BioAssay data set” (2004)
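Each compound was tested at five concentrations against cells in 96-well plates for 48 hours. Abbreviation: GI50, concentration required for 50% inhibition of growth.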 Calls of active or inactive are those of the source. No stated cut-off is given here; in the data, active = GI50 up to about 1.1 µM and inactive = higher.

Assays:
Assay in all cases: NCI tumour cell line growth inhibition, 48 h
HCT-15 = tested on: HCT-15
NCI-H522 = tested on: NCI-H522
Malme-3M = tested on: Malme-3M
OVCAR-4 = tested on: OVCAR-4
ACHN = tested on: ACHN
OVCAR-8 = tested on: OVCAR-8
SK-MEL-2 = tested on: SK-MEL-2
EKVX = tested on: EKVX
U-251 = tested on: U-251
KM12 = tested on: KM12
MCF7 = tested on: MCF7
CAKI-1 = tested on: CAKI-1
HCC 2998 = tested on: HCC 2998
PC-3 = tested on: PC-3
Hs-578T = tested on: Hs-578T
SK-MEL-5 = tested on: SK-MEL-5
SK-MEL-28 = tested on: SK-MEL-28
A549 = tested on: A549
COLO 205 = tested on: COLO 205
CCRF-CEM = tested on: CCRF-CEM

Compound	GI50 (HCT-15)	GI50 (NCI-H522)	GI50 (Malme-3M)	GI50 (OVCAR-4)	GI50 (ACHN)	GI50 (OVCAR-8)	GI50 (SK-MEL-2)	GI50 (EKVX)	GI50 (U-251)	GI50 (KM12)	GI50 (MCF7)	GI50 (CAKI-1)	GI50 (HCC 2998)	GI50 (PC-3)	GI50 (Hs-578T)	GI50 (SK-MEL-5)	GI50 (SK-MEL-28)	GI50 (A549)	GI50 (COLO 205)	GI50 (CCRF-CEM)
CC(=O)Oc1ccccc1C(=O)Nc1ncc([N+](=O)[O-])s1 [NITAZOXANIDE]	19.9 µM	2.86 µM (inactive)	11.1 µM (inactive)	28.7 µM (inactive)	20.4 µM (inactive)	15.7 µM (inactive)	16.3 µM (inactive)	21 µM (inactive)	19.4 µM (inactive)	22 µM (inactive)	10.2 µM (inactive)	26.5 µM (inactive)	13 µM (inactive)	9.53 µM (inactive)	9.2 µM (inactive)	11.9 µM (inactive)	11.6 µM (inactive)	22 µM (inactive)	12.7 µM (inactive)	
N#Cc1c(=O)c2cccnc2n2c1[nH]c1ccccc12	98.2 µM			> 100 µM (inactive)	42.1 µM (inactive)	66.7 µM (inactive)	> 100 µM (inactive)	85.9 µM (inactive)	38.6 µM (inactive)	80.7 µM (inactive)	> 100 µM (inactive)	> 100 µM (inactive)	> 100 µM (inactive)	> 100 µM (inactive)	21.6 µM (inactive)		> 100 µM (inactive)	> 100 µM (inactive)	> 100 µM (inactive)	> 100 µM (inactive)
O=C(N1CCOCC1)C1(c2ccccc2)CCNCC1	> 100 µM	> 100 µM (inactive)	> 100 µM (inactive)	> 100 µM (inactive)	> 100 µM (inactive)	> 100 µM (inactive)	> 100 µM (inactive)	> 100 µM (inactive)	> 100 µM (inactive)	> 100 µM (inactive)	> 100 µM (inactive)	> 100 µM (inactive)		> 100 µM (inactive)	> 100 µM (inactive)	> 100 µM (inactive)	> 100 µM (inactive)	> 100 µM (inactive)	> 100 µM (inactive)	0.0488 µM (active)
Cc1cnc(/N=c2\sc(C)cn2-c2ncc(C)s2)s1	> 100 µM	> 100 µM (inactive)	> 100 µM (inactive)	> 100 µM (inactive)	> 100 µM (inactive)	> 100 µM (inactive)		> 100 µM (inactive)	> 100 µM (inactive)	> 100 µM (inactive)	> 100 µM (inactive)		> 100 µM (inactive)	> 100 µM (inactive)	> 100 µM (inactive)	> 100 µM (inactive)	> 100 µM (inactive)	> 100 µM (inactive)	> 100 µM (inactive)	> 100 µM (inactive)
Cc1ccc(Cl)c2c1NC(=O)/C2=N\Nc1ccccc1[N+](=O)[O-]	37.8 µM		42.7 µM (inactive)	96.6 µM (inactive)	76.7 µM (inactive)	39.7 µM (inactive)	> 100 µM (inactive)	40.2 µM (inactive)	31.6 µM (inactive)	23.8 µM (inactive)	36.3 µM (inactive)	> 100 µM (inactive)	36.9 µM (inactive)	27.7 µM (inactive)	22.4 µM (inactive)		> 100 µM (inactive)	83 µM (inactive)	46.3 µM (inactive)	24.5 µM (inactive)
CC(=O)OC(OC(C)=O)n1cc(C=O)c2ccccc21	> 100 µM	> 100 µM (inactive)		> 100 µM (inactive)	> 100 µM (inactive)	> 100 µM (inactive)	> 100 µM (inactive)		> 100 µM (inactive)		25.9 µM (inactive)	> 100 µM (inactive)	> 100 µM (inactive)	> 100 µM (inactive)	> 100 µM (inactive)	> 100 µM (inactive)	> 100 µM (inactive)	> 100 µM (inactive)	> 100 µM (inactive)	> 100 µM (inactive)
CCOC(=O)CCC(C(=O)OCC)n1nc2ccc(Nc3c(C)[n+]([O-])c4cc(Cl)ccc4[n+]3[O-])cc2n1 (centres undefined)	88.1 µM	40 µM (inactive)	> 100 µM (inactive)	65.8 µM (inactive)	> 100 µM (inactive)	> 100 µM (inactive)	96.2 µM (inactive)	32.2 µM (inactive)	> 100 µM (inactive)	> 100 µM (inactive)	38.2 µM (inactive)	61.7 µM (inactive)		76.7 µM (inactive)	59.6 µM (inactive)	75 µM (inactive)		> 100 µM (inactive)	75.7 µM (inactive)	49.3 µM (inactive)
[O-][n+]1onc(-c2ccccc2)c1-c1no[n+]([O-])c1-c1c(-c2ccccc2)no[n+]1[O-]		18.8 µM (inactive)	20.4 µM (inactive)	2.94 µM (inactive)	4.81 µM (inactive)	24.1 µM (inactive)		37.2 µM (inactive)		7.43 µM (inactive)	3.23 µM (inactive)	12.8 µM (inactive)	74.1 µM (inactive)	2.47 µM (inactive)	54.1 µM (inactive)	14.8 µM (inactive)	33.7 µM (inactive)	23.1 µM (inactive)	6.37 µM (inactive)	5.18 µM (inactive)
COc1cc(/C=C/C(=O)OC[C@]23O[C@H]2[C@@H](OC2OC(C)C(O)C(O)C2O)C2C=CO[C@@H](OC4OC(CO)C(O)C(O)C4O)C23)ccc1O (some centres undefined)	> 100 µM	> 100 µM (inactive)	> 100 µM (inactive)	> 100 µM (inactive)	> 100 µM (inactive)	> 100 µM (inactive)	> 100 µM (inactive)	> 100 µM (inactive)	> 100 µM (inactive)	> 100 µM (inactive)	> 100 µM (inactive)		> 100 µM (inactive)	> 100 µM (inactive)	> 100 µM (inactive)	> 100 µM (inactive)	> 100 µM (inactive)	> 100 µM (inactive)	> 100 µM (inactive)	
CC(=O)OCC1OC(n2c3c(c(-c4ccco4)c(C#N)c2=S)CCC3)C(OC(C)=O)C(OC(C)=O)C1OC(C)=O (centres undefined)	> 100 µM		> 100 µM (inactive)	56.8 µM (inactive)	> 100 µM (inactive)		> 100 µM (inactive)		54.6 µM (inactive)	> 100 µM (inactive)	63.8 µM (inactive)	55.1 µM (inactive)	> 100 µM (inactive)	49.7 µM (inactive)	40.9 µM (inactive)	31.6 µM (inactive)	> 100 µM (inactive)	> 100 µM (inactive)	> 100 µM (inactive)	8.09 µM (inactive)
COC(=O)C(Cc1c[nH]c2ccccc12)NP(=O)(O)OCC1OC(n2ccc(N)nc2=O)C(O)C1O (centres undefined)	> 100 µM	> 100 µM (inactive)	> 100 µM (inactive)	> 100 µM (inactive)	> 100 µM (inactive)	> 100 µM (inactive)		> 100 µM (inactive)	> 100 µM (inactive)	> 100 µM (inactive)	> 100 µM (inactive)	> 100 µM (inactive)		> 100 µM (inactive)	> 100 µM (inactive)	> 100 µM (inactive)	> 100 µM (inactive)	> 100 µM (inactive)	> 100 µM (inactive)	88.3 µM (inactive)
CC(=O)C1CC[C@@H]2[C@H](CC[C@]3(C)[C@@H](O)CC[C@@H]23)[C@H]1C(=O)O (some centres undefined)	> 100 µM	> 100 µM (inactive)	> 100 µM (inactive)	> 100 µM (inactive)		> 100 µM (inactive)	> 100 µM (inactive)	> 100 µM (inactive)	> 100 µM (inactive)	> 100 µM (inactive)	> 100 µM (inactive)	> 100 µM (inactive)	> 100 µM (inactive)	> 100 µM (inactive)	74.1 µM (inactive)	> 100 µM (inactive)	> 100 µM (inactive)	> 100 µM (inactive)	> 100 µM (inactive)	> 100 µM (inactive)
O=c1[nH]nc(Cc2ccc(Cl)cc2)n1CCO	> 100 µM	> 100 µM (inactive)	> 100 µM (inactive)	> 100 µM (inactive)	> 100 µM (inactive)	> 100 µM (inactive)	> 100 µM (inactive)	> 100 µM (inactive)	> 100 µM (inactive)	> 100 µM (inactive)	> 100 µM (inactive)	> 100 µM (inactive)	> 100 µM (inactive)	> 100 µM (inactive)	> 100 µM (inactive)	> 100 µM (inactive)	> 100 µM (inactive)	> 100 µM (inactive)	> 100 µM (inactive)	
ClCC1(CCl)COC1	> 100 µM	> 100 µM (inactive)		> 100 µM (inactive)	> 100 µM (inactive)	> 100 µM (inactive)			> 100 µM (inactive)	> 100 µM (inactive)	> 100 µM (inactive)		> 100 µM (inactive)	> 100 µM (inactive)	> 100 µM (inactive)	> 100 µM (inactive)	> 100 µM (inactive)	> 100 µM (inactive)	> 100 µM (inactive)	> 100 µM (inactive)
c1ccc(NN/N=N/c2ccc(-c3nc4ccccc4[nH]3)cc2)cc1	13 µM	24.7 µM (inactive)	28.7 µM (inactive)	23.4 µM (inactive)	25.8 µM (inactive)	36 µM (inactive)	23.9 µM (inactive)	39.4 µM (inactive)	40.4 µM (inactive)	19.5 µM (inactive)	15.3 µM (inactive)	30.1 µM (inactive)		26.8 µM (inactive)	29.1 µM (inactive)	29 µM (inactive)	35.8 µM (inactive)	37 µM (inactive)	23.1 µM (inactive)	20.7 µM (inactive)
